Data as given in ChEMBL document CHEMBL1143076, “Polydiscamides B-D from a marine sponge Ircinia sp. as potent human sensory neuron-specific G protein coupled receptor agonists” (J Nat Prod, 2008).

Assay: Agonist activity at human sensory neuron-specific G-protein coupled receptor expressed in HEK293 cells assessed as intracellular calcium mobilization by FLIPR
Format: functional, cell-based

EC50	Structure (SMILES)
1.26 µM	CCC(C)(C)[C@H](NC(=O)[C@H](NC(=O)[C@@H]1CCCN1C(=O)[C@H](Cc1ccc(Br)cc1)NC(=O)[C@@H](C)NC=O)C(C)(C)C)C(=O)N[C@H](Cc1c[nH]c2ccccc12)C(=O)N[C@@H](CCCNC(=N)N)C(=O)N[C@H](CS(=O)(=O)O)C(=O)N[C@@H]1C(=O)N(C)[C@@H](CCC(N)=O)C(=O)N[C@H](C(C)C)C(=O)N2CCC[C@H]2C(=O)N[C@H](CC(=O)O)C(=O)O[C@@H]1C [POLYDISCAMIDE B]
2.8 µM	CC(C)[C@@H](NC(=O)[C@@H]1CCCN1C(=O)[C@H](Cc1ccc(Br)cc1)NC(=O)[C@@H](C)NC=O)C(=O)N[C@H](C(=O)N[C@H](Cc1c[nH]c2ccccc12)C(=O)N[C@@H](CCCNC(=N)N)C(=O)N[C@H](CS(=O)(=O)O)C(=O)N[C@@H]1C(=O)N(C)[C@@H](CCC(N)=O)C(=O)N[C@H](C(C)C)C(=O)N2CCC[C@H]2C(=O)N[C@H](CC(=O)O)C(=O)O[C@@H]1C)C(C)(C)C [POLYDISCAMIDE D]
3.57 µM	CCC(C)(C)[C@H](NC(=O)[C@H](NC(=O)[C@@H]1CCCN1C(=O)[C@H](Cc1ccc(Br)cc1)NC(=O)[C@@H](C)NC=O)C(C)C)C(=O)N[C@H](Cc1c[nH]c2ccccc12)C(=O)N[C@@H](CCCNC(=N)N)C(=O)N[C@H](CS(=O)(=O)O)C(=O)N[C@@H]1C(=O)N(C)[C@@H](CCC(N)=O)C(=O)N[C@H](C(C)C)C(=O)N2CCC[C@H]2C(=O)N[C@H](CC(=O)O)C(=O)O[C@@H]1C [POLYDISCAMIDE C]
